In experiment [1] the target is T1, Retinoic acid receptor alpha (Homo sapiens) (UniProt P10276).
T1 sequence (whole entry): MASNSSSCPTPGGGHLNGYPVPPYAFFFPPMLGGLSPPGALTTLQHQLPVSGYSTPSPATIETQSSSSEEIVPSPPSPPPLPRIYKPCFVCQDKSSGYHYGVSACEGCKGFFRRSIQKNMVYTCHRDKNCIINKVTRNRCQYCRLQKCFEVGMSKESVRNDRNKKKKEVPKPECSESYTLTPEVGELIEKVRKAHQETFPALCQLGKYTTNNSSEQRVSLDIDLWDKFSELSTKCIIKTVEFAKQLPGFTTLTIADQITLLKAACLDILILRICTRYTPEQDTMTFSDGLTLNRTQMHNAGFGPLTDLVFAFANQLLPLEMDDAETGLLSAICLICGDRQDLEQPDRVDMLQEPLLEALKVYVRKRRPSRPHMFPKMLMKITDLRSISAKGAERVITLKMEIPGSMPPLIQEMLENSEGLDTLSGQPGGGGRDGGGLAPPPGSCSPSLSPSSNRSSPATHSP
Kind of experiment: Relative transcriptional activation in CV-1 cells expressing RAR alpha receptor compared to ATRA. Format: functional, cell-based. The following applies: Cercopithecidae.

In experiment [2] the target is T2, Retinoic acid receptor beta (Homo sapiens) (UniProt P10826).
T2 sequence (whole entry): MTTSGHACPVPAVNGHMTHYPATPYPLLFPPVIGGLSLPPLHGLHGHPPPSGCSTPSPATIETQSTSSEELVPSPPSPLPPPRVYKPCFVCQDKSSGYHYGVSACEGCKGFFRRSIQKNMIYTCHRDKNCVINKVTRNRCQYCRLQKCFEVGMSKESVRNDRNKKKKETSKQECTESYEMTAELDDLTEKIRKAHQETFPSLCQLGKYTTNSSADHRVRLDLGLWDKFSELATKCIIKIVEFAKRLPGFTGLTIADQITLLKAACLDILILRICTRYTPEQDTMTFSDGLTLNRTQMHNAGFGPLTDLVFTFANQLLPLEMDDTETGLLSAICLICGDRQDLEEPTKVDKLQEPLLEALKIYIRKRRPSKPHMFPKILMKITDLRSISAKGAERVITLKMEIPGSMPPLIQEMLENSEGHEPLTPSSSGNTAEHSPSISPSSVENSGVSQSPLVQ
Kind of experiment: Relative transcriptional activation in CV-1 cells expressing RAR beta receptor compared to ATRA. It is filed as functional, cell-based. The following applies: Cercopithecidae.

For experiment [3], the target named is T3, Retinoic acid receptor gamma (Homo sapiens) (UniProt P13631).
T3 sequence (whole entry): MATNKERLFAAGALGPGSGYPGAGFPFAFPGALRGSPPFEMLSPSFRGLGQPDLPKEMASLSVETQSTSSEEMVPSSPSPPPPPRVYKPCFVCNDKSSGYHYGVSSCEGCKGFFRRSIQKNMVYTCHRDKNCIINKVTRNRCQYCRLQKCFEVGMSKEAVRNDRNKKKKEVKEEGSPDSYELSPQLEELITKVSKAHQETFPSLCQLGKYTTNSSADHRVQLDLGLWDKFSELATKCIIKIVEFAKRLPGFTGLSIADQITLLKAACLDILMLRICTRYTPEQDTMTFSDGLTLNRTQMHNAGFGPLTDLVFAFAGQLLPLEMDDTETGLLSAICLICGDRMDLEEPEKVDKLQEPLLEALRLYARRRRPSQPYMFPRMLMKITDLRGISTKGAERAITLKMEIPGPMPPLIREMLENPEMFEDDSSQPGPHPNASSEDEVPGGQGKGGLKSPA
Put plainly: Relative transcriptional activation in CV-1 cells expressing RAR gamma receptor compared to ATRA. Format: functional, cell-based. The following applies: Cercopithecidae.

Experiment [4] has as its target T2, Retinoic acid receptor beta (Homo sapiens). Kind of experiment: Binding affinity for Retinoic acid receptor beta relative to ATRA.
The target of experiment [5] is T3, Retinoic acid receptor gamma (Homo sapiens). Put plainly: Binding affinity for Retinoic acid receptor gamma relative to ATRA.
Experiment [6] has as its target T1, Retinoic acid receptor alpha (Homo sapiens). Kind of experiment: Binding affinity for Retinoic acid receptor alpha relative to ATRA.
Experiment [7] has as its target T3, Retinoic acid receptor gamma (Homo sapiens). Kind of experiment: Relative transcriptional activation in CV-1 cells expressing RAR gamma receptor compared to ATRA; Not detectable. It is filed as functional, cell-based. The following applies: Cercopithecidae.
Experiment [8] concerns the target T1, Retinoic acid receptor alpha (Homo sapiens). The following applies: Cercopithecidae; CV-1.
Description: Transcriptional activation in CV-1 cells expressing RAR alpha receptor
The target in experiment [9] is T2, Retinoic acid receptor beta (Homo sapiens). Conditions: Cercopithecidae; CV-1.
Description: Transcriptional activation in CV-1 cells expressing RAR beta receptor
The target is the same in experiment [10]. Put plainly: Relative transcriptional activation in CV-1 cells expressing RAR beta receptor compared to ATRA; Not detectable. It is filed as functional, cell-based. The following applies: Cercopithecidae.
For experiment [11], the system named is HL-60. Put plainly: Induction of HL-60 cell differentiation. Conditions: Homo sapiens. Format: functional.
The target in experiment [12] is T1, Retinoic acid receptor alpha (Homo sapiens). Put plainly: Binding affinity for Retinoic acid receptor alpha relative to ATRA; Not detectable.
Experiment [13] shares this target. Kind of experiment: Relative transcriptional activation in CV-1 cells expressing RAR alpha receptor compared to ATRA; Not detectable. It is filed as functional, cell-based. Conditions: Cercopithecidae.

Consider `CC(/C=C/C=C(\C)c1ccc2c(C)ccc(C)c2c1)=C\C(=O)O`, for which the Relative EC30 stood at 20 nM in experiment [1], 11 nM in experiment [2] and 660 nM in experiment [3]. For the same compound, the Relative IC50 was 49 nM in experiment [4], 227 nM in experiment [5] and 2.7 nM in [6].

`O=C(O)c1ccc(-c2ccc(-c3ccc4cccc(-c5ccccc5)c4c3)[nH]2)cc1`: the Relative EC30 in experiment [1] is above 10000 nM; in experiment [2] it was 880 nM; in experiment [7], above 10000 nM. In addition, the Relative IC50 in experiment [4] is above 1000 nM; in experiment [5], above 1000 nM; in experiment [6] it was 1.4 nM.

`CC1=C(/C=C/C(C)=C/C=C/C(C)=C/C(=O)O)C(C)(C)CCC1`: the concentration for an effect of 30% (EC30) is 1.1 nM in experiment [8] and 0.69 nM in [9].

Consider `Cc1cccc2ccc(-c3ccc(-c4ccc(C(=O)O)cc4)[nH]3)cc12`, for which the Relative EC30 in experiment [1] was 49 nM; in experiment [10], above 10000 nM; in [7], above 10000 nM. Besides, the Relative IC50 in experiment [4] is above 1000 nM; in experiment [5], above 1000 nM; in experiment [6], 15 nM.

`Cc1ccc(C)c2cc(-c3ccc(-c4ccc(C(=O)O)cc4)[nH]3)ccc12`: the Relative EC30 in experiment [1] worked out at 2.8 nM; in experiment [2], 250 nM; in [3], 2200 nM. Moreover, the Relative IC50 in [4] was above 1000 nM; in experiment [5] it was above 1000 nM; in [6], 24 nM.

As to `CC(C)c1cccc2ccc(-c3ccc(-c4ccc(C(=O)O)cc4)[nH]3)cc12`, the Relative EC30 in experiment [1] was determined as 1.1 nM; in [2], 78 nM; in [3], 88 nM. This compound had an EC30 in experiment [11] of 100 nM. For the same compound, the Relative IC50 in [4] was above 1000 nM; in experiment [5], 910 nM; in experiment [6], below 1 nM.

As to `CC(/C=C/C=C(\C)c1ccc2c(c1)C(C)(C)CCC2(C)C)=C\C(=O)O`, the Relative EC30 stood at 0.27 nM in experiment [1], 0.2 nM in experiment [2] and 0.24 nM in experiment [3]. In addition, the figures for the Relative IC50 in [4], in experiment [5] and in experiment [6] were 0.34 nM, 0.67 nM and 0.49 nM, respectively.

With `Cc1cc(C)c2ccc(-c3ccc(-c4ccc(C(=O)O)cc4)[nH]3)cc2c1`, the results for the Relative EC30 in [1], in experiment [10] and in experiment [7] were 90 nM, above 10000 nM and above 10000 nM, respectively. Moreover, the Relative IC50 in [4], in [5] and in experiment [12] was above 1000 nM in each case.

Take `Cc1c(C)c(C)c2cc(-c3ccc(-c4ccc(C(=O)O)cc4)[nH]3)ccc2c1C`: the Relative EC30 in experiment [13], in experiment [10] and in [7] was above 10000 nM each time. For the same compound, the Relative IC50 in experiment [4], in experiment [5] and in experiment [12] was above 1000 nM each time.

As to `Cc1cccc2c1C=C(c1ccc(-c3ccc(C(=O)O)cc3)[nH]1)CO2`, the Relative EC30 in experiment [1] was found to be 4.5 nM; in experiment [2], 1030 nM; in experiment [3], 5250 nM. Further, the Relative IC50 is above 1000 nM in experiment [4], above 1000 nM in experiment [5] and 50 nM in [6].

With `Cc1ccc(C)c2c1C=C(c1ccc(-c3ccc(C(=O)O)cc3)[nH]1)CO2`, the Relative EC30 was found to be 1.8 nM in [1], 240 nM in experiment [2] and 3600 nM in experiment [3]. Also, the Relative IC50 in experiment [4] was above 1000 nM; in experiment [5], above 1000 nM; in [6] it was 9.7 nM.

The values above are taken from ChEMBL document CHEMBL1133435, “Syntheses and evaluation of naphthalenyl- and chromenyl-pyrrolyl-benzoic acids as potent and selective retinoic acid receptor alpha agonists” (Bioorg Med Chem Lett, 2000).
